The text below walks through data of BindingDB's records for doi:10.1021/ml1001536 (2010).

Each structure is given as a SMILES string.

One may read the IC50 as the midpoint of a concentration-inhibition curve.

This experiment can be described thus: Antagonist activity at CCR5 in IL-10 stimulated human PBMC cells assessed as MIP-1beta induced chemotaxis.
On to `CO[C@@H]1Cc2cc(C(F)(F)F)ccc2[C@H]1N1CCN(C2(C)CCN(C(=O)c3c(C)ncnc3C)CC2)C[C@@H]1C` [5-[(4-(3S)-4-[(1R,2R)-2-methoxy-5-(trifluoromethyl)-2,3-dihydro-1H-inden-1-yl]-3-methylpiperazin-1-yl-4-methylpiperidin-1-yl)carbonyl]-4,6-dimethylpyrimidine], for which the half-inhibitory concentration (IC50) amounted to 3.5 nM.

`Cc1ncnc(C)c1C(=O)N1CCC(C)(N2CCN(C3CCc4cc(C(F)(F)F)ccc43)[C@@H](C)C2)CC1` (stereo partly drawn) [4,6-Dimethyl-5-[(4-methyl-4-{(3S)-3-methyl-4-[5-(trifluoromethyl)-2,3-dihydro-1H-inden-1-yl]piperazin-1-yl}piperidin-1-yl)carbonyl]pyrimidine]: the IC50 amounted to 1.2 nM.

For the molecule `Cc1ncnc(C)c1C(=O)N1CCC(C)(N2CCN(C3CCc4cc(Br)ccc43)[C@@H](C)C2)CC1` (stereo partly drawn) [5-({4-[(3S)-4-(5-Bromo-2,3-dihydro-1H-inden-1-yl)-3-methylpiperazin-1-yl]-4-methylpiperidin-1-yl}carbonyl)-4,6-dimethylpyrimidine], the concentration for half-maximal inhibition (IC50) stood at 1.1 nM.
